Source: patent US6538029B1, “Methods for treatment of renal cell carcinoma” (Cell Pathways, priority 2002, dated 2003)
pIC50: −log10 of the molar value. Where a name gives a salt, the structure may show the parent alone. Read-outs that look alike come from different tables or passages of the source.

Tests used:
PDE5 = target: T1, PDE5 (Homo sapiens, UniProt O76074); experiment: cGMP PDE inhibition, PDE5; type: biochemical
T1 construct: partially purified cGMP-specific PDE isolated from HT-29 cells; endogenous in cells; host or cells: HT-29 cells (partially purified enzyme)
Text: Compounds of this invention are also PDE2 and PDE5 inhibitors as taught in part U.S. patent application Ser. No. 09/046,739 filed Mar. 24, 1998, now abandoned. Compounds can be tested for inhibitory effect on phosphodiesterase activity using either the enzyme isolated from any tumor cell line such as HT-29 or SW-480. […] (Thompson, W. J., Teraski, W. L., Epstein, P. M., Strada, S. J., Advances in Cyclic Nucleotide Research, 10:69-92, 1979, which is incorporated herein by reference). In brief, asolution of defined substrate ^3H-cGMP specific activity (0.2 μM; 100,000 cpm; containing 40 mM Tris-HCl (pH 8.0), 5 mM MgCl2 and 1 mg/ml BSA) is mixed with the drug to be tested in a total volume of 400μl. The mixture is incubated at 30° C. for 10 minutes with partially purified cGMP-specific PDE isolated from HT-29 cells. Reactions are terminated, for example, by boiling the reaction mixture for 75 seconds. After cooling on ice, 100 μl of 0.5 mg/ml snake venom (O. Hannah venom available from Sigma) is added and incubated for 10 min at 30° C. […] The amount of radioactivity in the breakthrough and the wash from the columns in then measured with a scintillation counter. The degree of PDE5 inhibition is determined by calculating the amount of radioactivity in drug-treated reactions and comparing against a control sample (a reaction mixture lacking the tested compound).

[1] = Acute toxicity study in rats; details: rat, in vivo
[2] = 91-day oral study in dogs; type: in vivo
[3] = rat, in vivo
PDE4 = experiment: PDE inhibition, PDE4 (similar protocols); type: biochemical
renal cell carcinoma = experiment: Human clinical study in locally advanced or metastatic renal cell cancer; type: in vivo
Protocol: Patients were treated with 400 mg daily (200 mg twice daily) and continued at this dose throughout the study, provided no intolerable toxicity or disease progression occurred. Disease response was assessed by physical examination, chest x-ray and MRI or CT scan every eight weeks.
Nineteen patients with heavily pre-treated advanced, progressive renal cell carcinoma were entered into the study. […] The patients were on drug daily for a minimum of eight weeks.
The adverse events, which were reported (regardless of relationship), were of the nature and severity expected in this patient population.

PDE10 from 786-O = PDE10 from 786-O (Homo sapiens, UniProt Q9Y233); experiment: Inhibition and kinetics of PDE10 from 786-O (pooled fractions of the center peak); type: biochemical; details: IC50 on PDE10 from 786-O (inhibition of cGMP PDE activity), pooled center-peak fractions; FIG. 8, 9
Chain of PDE10 from 786-O (Q9Y233 290-1055 limits assumed): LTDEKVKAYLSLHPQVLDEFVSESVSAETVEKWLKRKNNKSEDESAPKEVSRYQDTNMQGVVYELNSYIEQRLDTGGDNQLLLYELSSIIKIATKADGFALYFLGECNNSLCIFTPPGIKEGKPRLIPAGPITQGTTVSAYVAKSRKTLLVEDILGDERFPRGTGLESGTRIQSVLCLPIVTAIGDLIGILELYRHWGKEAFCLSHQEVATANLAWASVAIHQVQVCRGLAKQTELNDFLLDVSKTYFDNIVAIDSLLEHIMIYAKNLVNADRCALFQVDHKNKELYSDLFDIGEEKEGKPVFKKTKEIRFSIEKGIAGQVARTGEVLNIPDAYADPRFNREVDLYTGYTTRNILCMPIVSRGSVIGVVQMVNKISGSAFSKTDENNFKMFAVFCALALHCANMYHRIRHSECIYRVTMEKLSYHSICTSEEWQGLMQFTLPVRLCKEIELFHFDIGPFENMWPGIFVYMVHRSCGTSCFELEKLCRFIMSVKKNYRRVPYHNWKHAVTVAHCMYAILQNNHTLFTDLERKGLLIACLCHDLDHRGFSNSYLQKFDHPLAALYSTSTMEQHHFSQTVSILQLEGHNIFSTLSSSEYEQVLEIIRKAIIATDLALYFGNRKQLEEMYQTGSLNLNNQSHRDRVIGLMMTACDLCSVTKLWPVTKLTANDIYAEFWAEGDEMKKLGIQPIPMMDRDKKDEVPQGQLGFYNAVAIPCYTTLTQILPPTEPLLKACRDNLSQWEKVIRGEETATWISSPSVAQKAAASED
Protocol: (§1) Fractions were pooled from a 786-O profile from the center peak.
as §1
(§2) Protein assays were determined using the Bio-Rad DC Protein Assay. A nonlinear regression to the Michalis-Menten equation in Prism was used to determine the Km and Vmax.
as §2

[4] = Phase I trial in patients with a range of solid tumors; type: in vivo
Protocol: Cycles were repeated without a treatment-free interval. Doses ranged from 100 to 800 mg/day.

[5] = Acute and seven-dose toxicity in dogs (capsules); details: both, dog, in vivo, po, 1000 mg/kg
Protocol: (§3) Therefore, these dogs were subsequently administered seven consecutive doses of 1000 mg/kg/day.

28-day study in rats = type: in vivo
Protocol: A 28-day study in rats was also carried out at 0, 50, 500 and 2000 mg/kg/day.

786-O cells [6] = experiment: Apoptosis on 786-O cells (Roche Cell Death Assay); type: cell-based, human; details: Homo sapiens, 786-0; 48 hours with drug; read-out: IC50 for induction of apoptosis in the 786-O cell line
Protocol: Testing of PDE10-Inhibiting Compounds for Apoptosis on Renal Carcinoma (786-O) Cells. […] After 24 hours, the media was removed and the same media containing the drug was added to the cells (0.1% DMSO final concentration). After 48 hours, apoptosis was detected using the Roche Cell Death Assay.

[7] = Seven-day dose-range finding study in rats; type: in vivo; details: seven days
PDEI = experiment: PDE inhibition, PDEI (similar protocols); type: biochemical
[8] = dog, in vivo
Protocol: as §3

786-O cells [9] = type: cell-based; details: Homo sapiens, 786-0, 144 h; 6 days with drug, sulforhodamine B
Protocol: Testing of Neoplastic Cell Growth Inhibition of PDE10-Inhibiting Compounds on Renal Cell Carcinoma (786-O) Cells. […] After 24 hours, the media was removed, and the same media containing the drug was added to the cells (0.1% DMSO final concentration).

[10] = 91-day long-term safety assessment study in rats; type: in vivo
Text: These changes were not associated with any gross clinical abnormality.

[11] = Single, escalating dose normal human volunteer clinical trial; type: in vivo; details: normal human volunteers, oral single escalating dose, any dose (50 mg-700 TDD)
[12] = 28 days, 50, 500 and 2000 mg/kg/day

## CC1=C(CC(=O)NCc2ccccc2)c2cc(F)ccc2C1=Cc1ccncc1 [Compound 38, (Z)-5-Fluoro-2-methyl-(4-pyridylidene)-3-(N-benzyl)indenylacetamide Hydrochloride]
PDE5
  pIC50: 5.40
[1]; ip, 1000 mg/kg
  LD50: > 1000 mg/kg
[1]; po
  LD50: > 2000 mg/kg
[2]; 91 days
  Microscopic alterations (liver): no microscopic alterations
  Tolerability: well tolerated
[2]; 91 days, 150 and 300 mg/kg/day groups
  Feces: Orange discoloration of the feces
[2]; 91 days, highest dose group
  Body weights: Slightly lowered body weights
  Liver weights: increased liver weights
[2]; oral, 91 consecutive days, 50, 150 and 300 mg/kg/day
  Toxicological effects: no toxicological effects
[3]; ip, 1000 mg/kg
  Body weight gain: reduced body weight gain
  Necropsy finding: mesenteric adhesions seen in some animals
[3]; po, 2000 mg/kg
  Body weight gains: slightly reduced
PDE4
  pIC50: 5.22
Renal cell carcinoma; 400 mg daily, renal cell carcinoma patients
  Serious Adverse Events due to the drug: No Serious Adverse Event due to the drug was reported
Renal cell carcinoma; interim evaluation of 16 evaluable patients, 400 mg daily (200 mg twice daily), minimum of eight weeks
  Patients who achieved stable disease: six
PDE10 from 786-O
  pIC50: 5.43
[4]; 21 patients, orally twice daily for 28 consecutive days, 100 to 800 mg/day
  Tolerability of therapy: well tolerated overall
[4]; 100 to 800 mg/day
  Maximum tolerated dose: not reached
[4]; up to 800 mg TDD, orally, twice-daily schedule
  Toxicity: minimally toxic
[5]
  LD50: > 1000 mg/kg
28-day study in rats; 28 days
  Macroscopic tissue changes at necropsy: No macroscopic tissue changes
28-day study in rats; 28 days, 2000 mg/kg/day
  Liver weights: statistically significant increase
  Thyroid weights: statistically significant increases
28-day study in rats; [12]
  Body weight changes, ophthalmoscopic examinations, hematological and blood chemistry values, urinalysis: unremarkable
  Clinical observations: no abnormal clinical observations
28-day study in rats; 28 days, generally a small number of animals at 2000 mg/kg/day, one female at 500 mg/kg/day
  Histopathological evaluation of tissues: traces of follicular cell hypertrophy, increased numbers of mitotic figures (suggestive of possible cell proliferation) in the thyroid gland and mild centrilobular hypertrophy in the liver
28-day study in rats; 28 days, lower doses
  Slight liver and thyroid increases: not statistically significant
786-O cells [6]
  pIC50: 6.00
[7]; 50 mg/kg/day
  Signs of toxicity: no observable signs of toxicity
[7]; 500 mg/kg/day
  Treatment-related effects: an increase in absolute and relative liver weights in female rats
[7]; 2000 mg/kg/day
  Treatment-related effects: labored breathing and/or abnormal respiratory sounds, decreased weights gains and food consumption in male rats, and increased liver weights in female rats
[7]; any dose level (50, 500, 2000 mg/kg/day)
  Hematology, blood chemistry, microscopic pathology: No hematological or blood chemistry changes nor any microscopic pathology changes
PDEI
  pIC50: 5.52
[8]; 1000 mg/kg
  Signs of toxicity: no signs of toxicity
[8]; 1000 mg/kg/day
  Signs of drug-related effects: At no time in either dosing phase were any obvious signs of drug-related effects observed
786-O cells [9]
  pIC50: 5.96
[10]; 91 days
  Clinical biochemistry and hematology: no changes
  Microscopic findings: slight hepatocellular hypertrophy at 200 and 500 mg/kg/day groups, follicular cell hypertrophy at 500 mg/kg/day and increase in accumulation of hyalin droplets in the kidneys at 200 and 500 mg/kg/day group
[10]; 91 days, males and females at 200 and 500 mg/kg/day
  Organ weights: dose-related trend to increased liver and thyroid/parathyroid weights
[10]; oral, 91 consecutive days, 50, 200 and 500 mg/kg/day
  Toxicological effects: did not produce any major toxicological effects
[11]
  Side effects: no significant side effects
